Drawing on ChEMBL document CHEMBL1124620, “New 1,4-dihydropyridine derivatives combining calcium antagonism and alpha-adrenolytic properties” (J Med Chem, 1989), this text covers IC50 and pA2 for nine compounds.

The structures appear in SMILES notation.

In assay [1] the target is T1, Adrenergic receptor alpha-2 (Homo sapiens, UniProt P08913+P18825+P18089).
T1 sequence (P08913 whole entry): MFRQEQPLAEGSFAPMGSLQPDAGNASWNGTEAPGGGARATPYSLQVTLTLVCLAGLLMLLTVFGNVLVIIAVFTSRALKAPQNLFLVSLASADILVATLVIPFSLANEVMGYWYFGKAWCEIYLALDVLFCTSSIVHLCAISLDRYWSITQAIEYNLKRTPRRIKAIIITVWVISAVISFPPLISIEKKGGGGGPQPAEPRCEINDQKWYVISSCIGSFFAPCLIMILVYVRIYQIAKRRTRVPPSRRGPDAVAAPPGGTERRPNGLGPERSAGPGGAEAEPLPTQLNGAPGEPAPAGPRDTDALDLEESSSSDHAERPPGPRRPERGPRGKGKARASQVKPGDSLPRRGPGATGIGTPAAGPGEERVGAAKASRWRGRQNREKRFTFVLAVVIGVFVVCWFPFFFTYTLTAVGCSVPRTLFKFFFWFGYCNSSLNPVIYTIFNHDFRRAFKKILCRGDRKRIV
T1 sequence (P18825 whole entry): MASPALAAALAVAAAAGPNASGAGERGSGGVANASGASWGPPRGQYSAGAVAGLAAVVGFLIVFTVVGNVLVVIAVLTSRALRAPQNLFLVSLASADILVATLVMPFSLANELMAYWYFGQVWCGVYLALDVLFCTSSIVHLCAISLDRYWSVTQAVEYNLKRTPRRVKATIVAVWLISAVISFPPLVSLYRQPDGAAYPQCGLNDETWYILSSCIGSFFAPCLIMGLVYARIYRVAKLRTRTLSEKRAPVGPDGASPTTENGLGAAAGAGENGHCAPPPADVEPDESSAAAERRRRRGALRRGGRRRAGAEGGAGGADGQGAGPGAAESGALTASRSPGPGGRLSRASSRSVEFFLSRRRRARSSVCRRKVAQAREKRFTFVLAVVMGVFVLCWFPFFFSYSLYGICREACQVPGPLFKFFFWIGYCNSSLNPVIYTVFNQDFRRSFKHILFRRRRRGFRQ
T1 sequence (P18089 whole entry): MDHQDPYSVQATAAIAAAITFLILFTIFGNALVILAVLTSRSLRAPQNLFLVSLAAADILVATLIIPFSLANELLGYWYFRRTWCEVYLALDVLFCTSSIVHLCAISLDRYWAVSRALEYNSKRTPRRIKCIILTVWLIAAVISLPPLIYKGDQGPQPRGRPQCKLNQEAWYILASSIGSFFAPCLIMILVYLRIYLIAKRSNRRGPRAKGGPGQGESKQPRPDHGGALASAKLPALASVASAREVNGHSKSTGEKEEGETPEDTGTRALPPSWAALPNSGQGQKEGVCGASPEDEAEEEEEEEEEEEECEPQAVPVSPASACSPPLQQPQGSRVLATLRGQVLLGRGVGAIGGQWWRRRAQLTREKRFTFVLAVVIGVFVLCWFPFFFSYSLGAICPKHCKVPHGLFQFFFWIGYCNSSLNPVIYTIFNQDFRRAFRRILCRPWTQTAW
In words: In vitro ability to inhibit norepinephrine binding to alpha-2 adrenergic receptor of guinea pig vas deferens. The following applies: target entry is the homologue from another species. The class given is tissue-based, Cavia porcellus.

The target in assay [2] is T2, Adrenergic receptor alpha-1 (Rattus norvegicus, UniProt P15823+P23944+P43140).
T2 sequence (P15823 whole entry): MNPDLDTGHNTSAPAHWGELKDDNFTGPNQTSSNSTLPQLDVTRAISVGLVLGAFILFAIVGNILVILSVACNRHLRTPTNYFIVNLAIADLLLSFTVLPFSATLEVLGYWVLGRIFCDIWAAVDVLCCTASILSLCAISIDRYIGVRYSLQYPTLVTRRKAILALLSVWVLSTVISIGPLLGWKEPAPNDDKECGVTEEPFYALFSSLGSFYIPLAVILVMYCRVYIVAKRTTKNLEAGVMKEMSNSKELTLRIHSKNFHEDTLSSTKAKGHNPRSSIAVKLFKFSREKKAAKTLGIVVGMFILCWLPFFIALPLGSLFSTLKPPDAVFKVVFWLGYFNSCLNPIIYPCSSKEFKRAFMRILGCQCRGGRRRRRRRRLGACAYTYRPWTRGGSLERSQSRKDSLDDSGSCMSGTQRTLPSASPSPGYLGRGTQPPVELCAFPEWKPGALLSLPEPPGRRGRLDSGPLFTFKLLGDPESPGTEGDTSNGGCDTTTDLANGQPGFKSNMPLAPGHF
T2 sequence (P23944 whole entry): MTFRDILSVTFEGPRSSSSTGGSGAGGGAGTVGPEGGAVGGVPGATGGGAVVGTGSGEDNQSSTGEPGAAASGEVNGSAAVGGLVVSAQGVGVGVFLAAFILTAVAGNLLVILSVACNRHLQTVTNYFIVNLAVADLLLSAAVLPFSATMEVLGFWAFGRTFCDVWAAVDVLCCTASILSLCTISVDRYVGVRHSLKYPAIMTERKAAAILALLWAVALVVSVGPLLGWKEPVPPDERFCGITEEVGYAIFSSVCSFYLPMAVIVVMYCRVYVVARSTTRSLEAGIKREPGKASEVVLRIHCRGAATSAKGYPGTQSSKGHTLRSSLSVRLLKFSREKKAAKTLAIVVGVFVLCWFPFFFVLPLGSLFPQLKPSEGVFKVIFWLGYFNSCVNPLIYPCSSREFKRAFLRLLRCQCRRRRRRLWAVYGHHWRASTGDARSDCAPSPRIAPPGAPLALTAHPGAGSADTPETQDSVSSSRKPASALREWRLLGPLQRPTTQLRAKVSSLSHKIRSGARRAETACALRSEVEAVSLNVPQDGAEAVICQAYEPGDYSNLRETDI
T2 sequence (P43140 whole entry): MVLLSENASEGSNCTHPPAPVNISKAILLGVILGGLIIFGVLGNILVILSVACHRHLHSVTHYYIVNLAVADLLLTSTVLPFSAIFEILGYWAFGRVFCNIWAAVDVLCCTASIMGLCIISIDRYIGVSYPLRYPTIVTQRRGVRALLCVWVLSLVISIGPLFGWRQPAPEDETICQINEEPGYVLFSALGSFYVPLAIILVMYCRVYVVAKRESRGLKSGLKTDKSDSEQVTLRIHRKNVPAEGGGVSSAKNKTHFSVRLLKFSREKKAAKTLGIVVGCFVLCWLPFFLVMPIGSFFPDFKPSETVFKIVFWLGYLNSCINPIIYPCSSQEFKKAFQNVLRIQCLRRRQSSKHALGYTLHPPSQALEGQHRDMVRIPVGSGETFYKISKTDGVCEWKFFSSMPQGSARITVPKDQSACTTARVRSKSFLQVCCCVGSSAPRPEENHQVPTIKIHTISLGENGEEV
The assay can be described thus: Alpha-1-adrenolytic activity was assessed from the ability to inhibit [3H]prazosin binding to rat cerebral cortex preparation. The class given is tissue-based.

The species named for another assay is Sus scrofa. In words: Calcium antagonistic activity was evaluated from the inhibition of CaCl2-induced contraction of depolarized pig coronary artery. The class given is functional.
The species named for another assay is Rattus norvegicus. In words: Calcium antagonistic activity was evaluated by in vitro inhibition of [3H]nitrendipine binding on rat cerebral cortex. The class given is functional.
Where [3] appears, read: Rattus norvegicus, Cerebral cortex, 90 min.

The IC50 is the midpoint of a concentration-inhibition curve. For `CO/C(O)=C1\C(C)=NC(C)=C(C(=O)OCCN2CCC(n3c(O)nc4ccccc43)CC2)C1c1cccc([N+](=O)[O-])c1` (stereo not given), the IC50 in assay [1] was >> 1e-6 M; in assay [2] it was 41 nM; in the assay listed under Sus scrofa (Sus scrofa, Coronary artery) it was 1000 nM; in the assay listed under Rattus norvegicus (setting [3]), 0.6 nM.
As for `CO/C(O)=C1\C(C)=NC(C)=C(C(=O)OCCN(C)CC2COc3ccccc3O2)C1c1ccccc1[N+](=O)[O-]` (stereo not given), the IC50 was > 1e-06 M in assay [1]; 300 nM in assay [2]; 4 nM in the assay filed under Sus scrofa (Sus scrofa, Coronary artery); 0.07 nM in the assay listed under Rattus norvegicus (setting [3]).
One may read the pA2 as a measure of antagonist potency on a negative log scale. Low readings indicate lower antagonist potency, high ones higher antagonist potency. `CO/C(O)=C1\C(C)=NC(C)=C(C(=O)OCCN(C)C(C)COc2ccccc2)C1c1cccc([N+](=O)[O-])c1.Cl` (stereo not given) returned a pA2 in assay [1] of 6.7. Also, the concentration for half-maximal inhibition (IC50) in assay [2] worked out at 380 nM; in the assay listed under Sus scrofa (Sus scrofa, Coronary artery), 13 nM; in the assay filed under Rattus norvegicus (setting [3]), 0.073 nM.
On to `CC1=NC(C)=C(C(=O)OC(C)CN(C)CC2COc3ccccc3O2)C(c2cccc([N+](=O)[O-])c2)/C1=C(\O)OC(C)C.Cl` (stereo not given), for which the IC50 amounted to 3900 nM in assay [2]; 150 nM in the assay filed under Sus scrofa (Sus scrofa, Coronary artery); 3.4 nM in the assay listed under Rattus norvegicus.
As for `CO/C(O)=C1\C(C)=NC(C)=C(C(=O)OC(C)CN(C)CC2COc3ccccc3O2)C1c1cccc([N+](=O)[O-])c1.Cl` (stereo not given), the IC50 was >> 0.00001 M in assay [1]; 1000 nM in assay [2]; 3.8 nM in the assay listed under Sus scrofa (Sus scrofa, Coronary artery); 0.05 nM in the assay listed under Rattus norvegicus (setting [3]).
For the compound `CO/C(O)=C1\C(C)=NC(C)=C(C(=O)OCCN(C)C(c2ccccc2)C2CCCCC2)C1c1cccc([N+](=O)[O-])c1.Cl` (stereo not given), the 50% inhibitory concentration (IC50) in assay [1] is > 0.0001 M; in assay [2] it was 75000 nM; in the assay listed under Sus scrofa (Sus scrofa, Coronary artery), > 10000 nM; in the assay listed under Rattus norvegicus (setting [3]) it was 3.8 nM.
Taken in the same sequence, the figures for `CO/C(O)=C1\C(C)=NC(C)=C(C(=O)OCCN(C)CC2COc3ccccc3O2)C1c1cccc([N+](=O)[O-])c1.Cl` (stereo not given) were > 1e-06 M, 500 nM, 4.5 nM and 0.1 nM.
With `COC(=O)C1=C(C)NC(C)=C(C(=O)OCCN(C)C[C@H]2COc3ccccc3O2)[C@@H]1c1cccc([N+](=O)[O-])c1.Cl` (stereo in doubt; 6a), the IC50 in assay [1] was >> 1e-6 M; in assay [2] it was 2400 nM; in the assay filed under Sus scrofa, 1.5 nM; in the assay listed under Rattus norvegicus, 0.018 nM.
For `COC(=O)C1=C(C)NC(C)=C(C(=O)OCCN(C)C[C@H]2COc3ccccc3O2)[C@@H]1c1cccc([N+](=O)[O-])c1.Cl` (stereo in doubt; 6b), the IC50 in assay [1] is > 0.0001 M; in assay [2], 2300 nM; in the assay filed under Sus scrofa, 10 nM; in the assay filed under Rattus norvegicus, 2.8 nM.
